What was measured:
[1] = system: Rabbit Psoas myofibrils (skeletal myosin ATPase); test: Myofibril ATPase assay, rabbit psoas (skeletal) myofibrils; type: biochemical; conditions: rabbit psoas myofibrils
In short: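 ATPase activity of Triton-washed myofibrils was measured by PK/LDH coupling, following NADH loss at 340 nm every 1.5–2 min for 75 min in PIPES/Ca/EGTA buffer at pH 7.0. Slopes, normalized to vehicle (100%), were fitted to a 4-parameter logistic model. Values are Y75 (25% inhibition) or Y125 (activators).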

[2] = system: Porcine atria myofibrils (atrial myosin ATPase); test: Myofibril ATPase assay, porcine atria myofibrils; type: biochemical; conditions: porcine atria myofibrils
In short: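 Porcine atrial myofibrils were tested in a PK/LDH-coupled system where ADP from myosin ATPase drives NADH oxidation. Absorbance at 340 nm was read every 1.5-2 min for 75 min and slopes were normalized to vehicle wells. A 4-parameter logistic fit gave Y75 (25% inhibition) or Y125 (activation) concentrations.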

[3] = target: T1, Porcine ventricle myofibrils (ventricular myosin ATPase) (Sus scrofa, UniProt P79293); test: Myofibril ATPase assay, porcine ventricle myofibrils; type: biochemical, porcine (Yucatan minipigs); conditions: porcine ventricle myofibrils
T1 construct: Myofibrils from porcine cardiac muscle was isolated from the left ventricle of Yucatan minipigs; tissue Exemplar Genetics; host or cells: left ventricle of Yucatan minipigs, myofibrils prepared in house
In short: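 Test compounds acted on myofibrils isolated from the left ventricle of Yucatan minipigs. ADP formation was coupled via pyruvate kinase/lactate dehydrogenase to NADH oxidation, monitored kinetically at 340 nm over 75 min. Rates relative to vehicle were fitted with a 4-parameter logistic model, reported as Y75 (25% inhibition) or Y125 (activation) concentrations.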

[4] = Y75 value (75% activity relative to no compound)

T1 sequence (P79293 whole entry): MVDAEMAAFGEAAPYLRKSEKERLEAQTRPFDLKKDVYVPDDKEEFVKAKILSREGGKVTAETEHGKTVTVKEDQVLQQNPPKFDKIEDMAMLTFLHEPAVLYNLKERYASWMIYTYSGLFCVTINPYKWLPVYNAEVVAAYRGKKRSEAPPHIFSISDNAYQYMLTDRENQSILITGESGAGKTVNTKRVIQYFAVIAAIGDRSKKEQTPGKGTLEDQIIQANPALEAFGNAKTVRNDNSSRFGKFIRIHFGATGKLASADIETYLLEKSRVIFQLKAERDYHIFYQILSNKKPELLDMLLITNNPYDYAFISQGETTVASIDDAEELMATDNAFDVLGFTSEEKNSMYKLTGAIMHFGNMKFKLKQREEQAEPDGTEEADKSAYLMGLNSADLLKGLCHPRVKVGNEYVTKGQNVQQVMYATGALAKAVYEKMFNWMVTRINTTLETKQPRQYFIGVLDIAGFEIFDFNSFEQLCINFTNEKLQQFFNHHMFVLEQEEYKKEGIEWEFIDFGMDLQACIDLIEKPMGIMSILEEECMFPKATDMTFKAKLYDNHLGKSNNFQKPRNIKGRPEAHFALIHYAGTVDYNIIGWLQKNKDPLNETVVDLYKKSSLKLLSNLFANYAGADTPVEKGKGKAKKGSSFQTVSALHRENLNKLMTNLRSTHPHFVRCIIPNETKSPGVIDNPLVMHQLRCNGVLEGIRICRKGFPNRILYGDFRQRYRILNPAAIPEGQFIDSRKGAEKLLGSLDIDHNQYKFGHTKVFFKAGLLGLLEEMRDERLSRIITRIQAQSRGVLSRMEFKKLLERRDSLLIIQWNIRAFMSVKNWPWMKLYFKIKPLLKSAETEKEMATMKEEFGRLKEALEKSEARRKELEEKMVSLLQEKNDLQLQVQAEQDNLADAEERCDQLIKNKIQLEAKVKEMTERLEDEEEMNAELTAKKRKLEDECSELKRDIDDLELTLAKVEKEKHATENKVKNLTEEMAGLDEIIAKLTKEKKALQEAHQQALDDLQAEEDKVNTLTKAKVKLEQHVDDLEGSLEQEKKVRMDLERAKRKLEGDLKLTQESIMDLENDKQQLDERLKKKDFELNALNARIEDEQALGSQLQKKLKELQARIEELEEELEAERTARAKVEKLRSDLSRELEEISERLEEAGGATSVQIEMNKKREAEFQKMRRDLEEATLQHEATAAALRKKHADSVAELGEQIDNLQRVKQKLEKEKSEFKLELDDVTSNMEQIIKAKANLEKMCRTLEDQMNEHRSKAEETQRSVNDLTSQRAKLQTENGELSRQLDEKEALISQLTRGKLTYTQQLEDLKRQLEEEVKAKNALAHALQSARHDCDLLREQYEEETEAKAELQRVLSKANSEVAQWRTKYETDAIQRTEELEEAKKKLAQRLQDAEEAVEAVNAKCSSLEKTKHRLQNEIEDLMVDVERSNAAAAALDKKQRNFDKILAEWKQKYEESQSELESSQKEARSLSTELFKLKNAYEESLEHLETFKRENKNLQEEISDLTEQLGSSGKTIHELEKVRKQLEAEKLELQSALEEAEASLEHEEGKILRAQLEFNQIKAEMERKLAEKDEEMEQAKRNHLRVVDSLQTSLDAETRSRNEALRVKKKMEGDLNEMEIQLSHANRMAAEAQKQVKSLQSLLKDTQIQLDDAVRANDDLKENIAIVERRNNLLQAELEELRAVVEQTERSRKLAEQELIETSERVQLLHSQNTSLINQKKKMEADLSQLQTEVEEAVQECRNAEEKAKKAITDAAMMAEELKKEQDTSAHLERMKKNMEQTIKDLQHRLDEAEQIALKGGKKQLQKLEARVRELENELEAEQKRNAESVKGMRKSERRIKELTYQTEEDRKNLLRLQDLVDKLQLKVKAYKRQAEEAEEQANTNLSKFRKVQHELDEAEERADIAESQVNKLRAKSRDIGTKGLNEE

| Compound | Skeletal EC25 ([1]; Y75 value) [µM] | Atrial EC25 [2, 4] [nM] | Ventricular EC25 ([3]; Y75 value) [nM] | Skeletal EC25 ([1]; Y75 value (no ‡ mark)) [µM] | Atrial EC25 ([2]; Y75 value (no ‡ mark)) [nM] | Ventricular EC25 ([3]; Y75 value (no ‡ mark)) [nM] | Skeletal EC25 ([1]; ‡ Y125 value, not a Y75 value (125% activity relative to no compound)) |
| --- | --- | --- | --- | --- | --- | --- | --- |
| C[C@H](NC(=O)Cc1cc2c(C#N)nccc2[nH]c1=O)c1ccc(C#N)cn1 [compound 473] | 0.30 | 1440 | 6630 | – | – | – | – |
| Cc1nncc2[nH]c(=O)c(CC(=O)N[C@@H](C)c3ncc(C#N)cc3F)cc12 [compound 452] | 100.00 | 63470 | 100000 | – | – | – | – |
| Cc1c(CC(=O)N[C@@H](C)c2ccc(F)cc2F)c(=O)[nH]c2ccnc(NCC(C)C)c12 [compound 277] | 82.10 | 100000 | 84290 | – | – | – | – |
| Cc1c(CC(=O)N[C@@H](C)c2ccc(C#N)cn2)c(=O)[nH]c2ccc(OC(F)(F)F)nc12 [compound 450] | 100.00 | 100000 | 100000 | – | – | – | – |
| Cc1c(CC(=O)N[C@@H](CO)c2ccc(F)cc2F)c(=O)[nH]c2ccnc(C(F)(F)F)c12 [compound 232] | 0.02 | 470 | 2740 | – | – | – | – |
| N#Cc1cnc2c(c1)OC[C@H]2NC(=O)Cc1cc2c(F)c(F)ccc2[nH]c1=O (single isomer, unassigned) [compound 13] | – | – | – | 0.05 | 320 | 90 | – |
| Cc1c(CC(=O)N[C@@H](C)c2ccc(F)cc2F)c(=O)[nH]c2ccnc(C(F)(F)F)c12 [compound 377] | 0.01 | 60 | 290 | – | – | – | – |
| Cc1c(CC(=O)N[C@H](C)c2ccc(C#N)cn2)c(=O)[nH]c2ccnc(C#N)c12 [compound 157] | 0.62 | 13100 | 26290 | – | – | – | – |
| Cc1ccccc1[C@H](CO)NC(=O)Cc1c(C)c2c(C)nccc2[nH]c1=O (single isomer, unassigned) [compound 338] | 27.39 | 8690 | 100000 | – | – | – | – |
| Cc1c(CC(=O)N[C@H](C)c2ccc(C#N)cn2)c(=O)[nH]c2cc(F)c(F)cc12 [compound 1112] | – | – | – | 3.86 | 5010 | 2090 | – |
| C[C@H](NC(=O)C1(c2cc3c(F)c(F)ccc3[nH]c2=O)CC1)c1ncc(C#N)cn1 (single isomer, unassigned) [compound 2550] | – | – | – | 1.22 | 1390 | 77930 | – |
| Cc1c(CC(=O)N[C@@H](C)c2ccc(F)cc2F)c(=O)[nH]c2ccc(F)c(Cl)c12 [compound 85] | – | – | – | 0.02 | 30 | 70 | – |
| Cc1c(C(F)(F)C(=O)N[C@@H]2COc3cc(C#N)cc(F)c32)c(=O)[nH]c2ccc(F)cc12 (single isomer, unassigned) [compound 2553] | – | – | – | 0.79 | 510 | 34880 | – |
| Cc1nc(C#N)cnc1[C@H](C)NC(=O)Cc1c(C)c2c(F)c(F)ccc2[nH]c1=O [compound 1140] | – | – | – | 0.00 | 80 | 60 | – |
| Cc1ccc2[nH]c(=O)c(CC(=O)N[C@@H](C)c3ccc(F)cc3F)c(C)c2n1 [compound 420] | 0.19 | 110 | 2340 | – | – | – | – |
| Cc1nccc2[nH]c(=O)c(C(F)(F)C(=O)N[C@@H](C)c3ccc(F)cc3F)c(C)c12 [compound 405] | 0.04 | 150 | 1120 | – | – | – | – |
| Cc1c(CC(=O)N[C@@H](CO)c2ccc(C#N)cc2F)c(=O)[nH]c2ccc(F)c(C3CC3)c12 [compound 72] | – | – | – | 0.02 | 80 | 340 | – |

| Compound | Skeletal EC25 ([1]; Y75 value) [µM] | Atrial EC25 [2, 4] [nM] | Ventricular EC25 ([3]; Y75 value) [nM] | Skeletal EC25 ([1]; Y75 value (no ‡ mark)) [µM] | Atrial EC25 ([2]; Y75 value (no ‡ mark)) [nM] | Ventricular EC25 ([3]; Y75 value (no ‡ mark)) [nM] | Skeletal EC25 ([1]; ‡ Y125 value, not a Y75 value (125% activity relative to no compound)) |
| --- | --- | --- | --- | --- | --- | --- | --- |
| C[C@@H](NC(=O)Cc1cc2c(F)c(F)ccc2[nH]c1=O)c1ncc(F)cc1F [compound 33] | – | – | – | 0.29 | 170 | 460 | – |
| Cc1c(CC(=O)N[C@H](C)c2ccc(C#N)nn2)c(=O)[nH]c2ccc(F)c(C3CC3)c12 (single isomer, unassigned) [compound 2057] | – | – | – | 0.27 | 650 | 940 | – |
| C[C@H](NC(=O)Cc1c(C(F)F)c2cc(F)ccc2[nH]c1=O)c1ccc(F)cc1F [compound 106] | – | – | – | 0.04 | 50 | 200 | – |
| C[C@H](NC(=O)Cc1c(C2CC2)c2cc(C#N)ccc2[nH]c1=O)c1ncc(C#N)cc1F [compound 1152] | – | – | – | 3.82 | 59910 | 7780 | – |
| Cc1c(CC(=O)N[C@H](C)c2cnc(C#N)nc2)c(=O)[nH]c2ccc(C(F)(F)F)nc12 [compound 457] | 100.00 | 30660 | 100000 | – | – | – | – |
| Cc1c(CC(=O)N[C@H](CO)c2ccc(C#N)cc2F)c(=O)[nH]c2ccnc(C#N)c12 (single isomer, unassigned) [compound 241] | 0.17 | 690 | 4210 | – | – | – | – |
| Cc1nccc2[nH]c(=O)c(CC(=O)N[C@H](C)c3ccc(O)nc3)c(C)c12 (single isomer, unassigned) [compound 295] | 100.00 | 100000 | 100000 | – | – | – | – |
| C[C@H](NC(=O)Cc1cc2c(C#N)c(O)ccc2[nH]c1=O)c1ccc(F)cc1F [compound 82] | – | – | – | 100.00 | 100000 | 100000 | – |
| Cc1nc(C#N)cnc1[C@H](C)NC(=O)C1(c2cc3c(F)c(F)ccc3[nH]c2=O)CC1 (single isomer, unassigned) [compound 4826] | – | – | – | 1.00 | 670 | 10090 | – |
| Cc1nccc2[nH]c(=O)c(CC(=O)N[C@H](CCO)c3ccc(F)cc3F)c(C)c12 (single isomer, unassigned) [compound 341] | 100.00 | 100000 | 100000 | – | – | – | – |
| Cc1cc([C@@H](C)NC(=O)Cc2cc3c(C#N)nccc3[nH]c2=O)ncc1F [compound 470] | 9.89 | 100000 | 100000 | – | – | – | – |
| Cc1c(CC(=O)N[C@@H](C)c2ccc(F)cc2F)c(=O)[nH]c2ccnc(F)c12 [compound 391] | 0.01 | 50 | 290 | – | – | – | – |
| CC(NC(=O)C1(c2cc3c(F)c(F)ccc3[nH]c2=O)CC1)c1cccc(C#N)n1 (single isomer, unassigned) [Compound 2569] | – | – | – | 100.00 | 4840 | 100000 | – |
| Cc1c(CC(=O)N[C@H](C)c2ncc(C#N)cc2F)c(=O)[nH]c2cc(F)c(F)cc12 [compound 1104] | – | – | – | 0.03 | 140 | 210 | – |
| Cc1nccc2[nH]c(=O)c(CC(=O)N[C@@H](C)c3ccc(F)cc3F)cc12 [compound 445] | 0.43 | 2320 | 20530 | – | – | – | – |
| Cc1nccc2[nH]c(=O)c(CC(=O)N[C@@H](C)c3ccc(C#N)cc3F)c(F)c12 [compound 149] | 0.02 | 60 | 100 | – | – | – | – |
| Cc1c(C2(C(=O)NC(C)c3cccc(C#N)n3)CC2)c(=O)[nH]c2ccc(F)cc12 (single isomer, unassigned) [Compound 2580] | – | – | – | – | 4520 | 100000 | 17.17‡ μM |

From patent US12448369B2 (Edgewise Therapeutics, Inc., priority 2023, dated 2025)
